Source: PMC3968014, “Design and Synthesis of a Library of Lead-Like 2,4-Bisheterocyclic Substituted Thiophenes as Selective Dyrk/Clk Inhibitors” (PLoS ONE, 2014)

Experiments:
TEK (Tie2) = molecular target: T1, TEK (Tie2) (Homo sapiens, UniProt Q02763); assay: Selectivity panel TEK; format: biochemical; conditions: 5 µM inhibitor
T1 construct: purchased Life Technologies (Invitrogen SelectScreen); Dyrk1A, Dyrk2 and CK2α in-house or gifts

PASK = molecular target: T2, PASK (Homo sapiens, UniProt Q96RG2); assay: Selectivity panel PASK (CAMK); format: biochemical; conditions: 5 µM inhibitor; listed under CAMK
T2 construct: purchased Life Technologies (Invitrogen SelectScreen); Dyrk1A, Dyrk2 and CK2α in-house or gifts

DYRK3 = molecular target: T3, DYRK3 (Homo sapiens, UniProt O43781); assay: Selectivity panel DYRK3; format: biochemical; conditions: 5 µM inhibitor
T3 construct: purchased Life Technologies (Invitrogen SelectScreen); Dyrk1A, Dyrk2 and CK2α in-house or gifts

BTK = molecular target: T4, BTK (Homo sapiens, UniProt Q06187); assay: Selectivity panel BTK; format: biochemical; conditions: 5 µM inhibitor
T4 construct: purchased Life Technologies (Invitrogen SelectScreen); Dyrk1A, Dyrk2 and CK2α in-house or gifts

DAPK3 (ZIPK) = molecular target: T5, DAPK3 (ZIPK) (Homo sapiens, UniProt O43293); assay: Selectivity panel DAPK3; format: biochemical; conditions: 5 µM inhibitor
T5 construct: purchased Life Technologies (Invitrogen SelectScreen); Dyrk1A, Dyrk2 and CK2α in-house or gifts

MAP2K1 (MEK1) = molecular target: T6, MAP2K1 (MEK1) (Homo sapiens, UniProt Q02750); assay: Selectivity panel MAP2K1; format: biochemical; conditions: 5 µM inhibitor
T6 construct: purchased Life Technologies (Invitrogen SelectScreen); Dyrk1A, Dyrk2 and CK2α in-house or gifts

MYLK2 (skMLCK) = molecular target: T7, MYLK2 (skMLCK) (Homo sapiens, UniProt Q9H1R3); assay: Selectivity panel MYLK2; format: biochemical; conditions: 5 µM inhibitor
T7 construct: purchased Life Technologies (Invitrogen SelectScreen); Dyrk1A, Dyrk2 and CK2α in-house or gifts

RPS6KA5 (MSK1) = molecular target: T8, RPS6KA5 (MSK1) (Homo sapiens, UniProt O75582); assay: Selectivity panel RPS6KA5; format: biochemical; conditions: 5 µM inhibitor
T8 construct: purchased Life Technologies (Invitrogen SelectScreen); Dyrk1A, Dyrk2 and CK2α in-house or gifts
T8 sequence (O75582 whole entry): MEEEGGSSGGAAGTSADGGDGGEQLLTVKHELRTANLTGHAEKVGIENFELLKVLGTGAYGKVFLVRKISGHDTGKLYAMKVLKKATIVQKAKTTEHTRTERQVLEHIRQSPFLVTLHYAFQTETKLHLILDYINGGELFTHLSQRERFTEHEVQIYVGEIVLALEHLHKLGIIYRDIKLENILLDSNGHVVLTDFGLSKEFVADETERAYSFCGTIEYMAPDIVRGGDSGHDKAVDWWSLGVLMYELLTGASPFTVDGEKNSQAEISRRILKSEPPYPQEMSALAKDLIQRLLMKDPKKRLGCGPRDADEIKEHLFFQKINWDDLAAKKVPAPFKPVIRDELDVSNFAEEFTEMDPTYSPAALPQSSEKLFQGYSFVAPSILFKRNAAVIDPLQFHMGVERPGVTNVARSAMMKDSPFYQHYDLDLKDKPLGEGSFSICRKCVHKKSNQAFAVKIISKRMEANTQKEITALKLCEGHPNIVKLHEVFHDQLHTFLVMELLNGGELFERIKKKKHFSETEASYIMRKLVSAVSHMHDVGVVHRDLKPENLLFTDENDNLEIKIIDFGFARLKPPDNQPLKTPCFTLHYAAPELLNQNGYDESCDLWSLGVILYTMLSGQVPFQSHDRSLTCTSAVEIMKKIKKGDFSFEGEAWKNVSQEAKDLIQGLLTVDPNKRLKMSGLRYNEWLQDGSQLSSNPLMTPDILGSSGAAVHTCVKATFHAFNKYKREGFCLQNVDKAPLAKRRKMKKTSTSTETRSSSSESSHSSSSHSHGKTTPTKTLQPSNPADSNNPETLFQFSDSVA

NEK1 = molecular target: T9, NEK1 (Homo sapiens, UniProt Q96PY6); assay: Selectivity panel NEK1; format: biochemical; conditions: 5 µM inhibitor
T9 construct: purchased Life Technologies (Invitrogen SelectScreen); Dyrk1A, Dyrk2 and CK2α in-house or gifts

ROCK2 = molecular target: T10, ROCK2 (Homo sapiens, UniProt O75116); assay: Selectivity panel ROCK2; format: biochemical; conditions: 5 µM inhibitor
T10 construct: purchased Life Technologies (Invitrogen SelectScreen); Dyrk1A, Dyrk2 and CK2α in-house or gifts

MAPK1 (ERK2) = molecular target: T11, MAPK1 (ERK2) (Homo sapiens, UniProt P28482); assay: Selectivity panel MAPK1; format: biochemical; conditions: 5 µM inhibitor
T11 construct: purchased Life Technologies (Invitrogen SelectScreen); Dyrk1A, Dyrk2 and CK2α in-house or gifts

PDK1 = molecular target: T12, PDK1 (Homo sapiens, UniProt O15530); assay: Selectivity panel PDK1; format: biochemical; conditions: 5 µM inhibitor
T12 construct: purchased Life Technologies (Invitrogen SelectScreen); Dyrk1A, Dyrk2 and CK2α in-house or gifts

ZAP70 = molecular target: T13, ZAP70 (Homo sapiens, UniProt P43403); assay: Selectivity panel ZAP70; format: biochemical; conditions: 5 µM inhibitor
T13 construct: purchased Life Technologies (Invitrogen SelectScreen); Dyrk1A, Dyrk2 and CK2α in-house or gifts

PIK3CA/PIK3R1 = molecular target: T14, PIK3CA/PIK3R1 (Homo sapiens, UniProt P42336); assay: Selectivity panel PIK3CA/PIK3R1; format: biochemical; conditions: 5 µM inhibitor
T14 construct: purchased Life Technologies (Invitrogen SelectScreen); Dyrk1A, Dyrk2 and CK2α in-house or gifts

ABL1 = molecular target: T15, ABL1 (Homo sapiens, UniProt P00519); assay: Selectivity panel ABL1; format: biochemical; conditions: 5 µM inhibitor
T15 construct: purchased Life Technologies (Invitrogen SelectScreen); Dyrk1A, Dyrk2 and CK2α in-house or gifts

AXL = molecular target: T16, AXL (Homo sapiens, UniProt P30530); assay: Selectivity panel AXL; format: biochemical; conditions: 5 µM inhibitor
T16 construct: purchased Life Technologies (Invitrogen SelectScreen); Dyrk1A, Dyrk2 and CK2α in-house or gifts

MAPKAPK2 = molecular target: T17, MAPKAPK2 (Homo sapiens, UniProt P49137); assay: Selectivity panel MAPKAPK2; format: biochemical; conditions: 5 µM inhibitor
T17 construct: purchased Life Technologies (Invitrogen SelectScreen); Dyrk1A, Dyrk2 and CK2α in-house or gifts
T17 sequence (P49137 whole entry): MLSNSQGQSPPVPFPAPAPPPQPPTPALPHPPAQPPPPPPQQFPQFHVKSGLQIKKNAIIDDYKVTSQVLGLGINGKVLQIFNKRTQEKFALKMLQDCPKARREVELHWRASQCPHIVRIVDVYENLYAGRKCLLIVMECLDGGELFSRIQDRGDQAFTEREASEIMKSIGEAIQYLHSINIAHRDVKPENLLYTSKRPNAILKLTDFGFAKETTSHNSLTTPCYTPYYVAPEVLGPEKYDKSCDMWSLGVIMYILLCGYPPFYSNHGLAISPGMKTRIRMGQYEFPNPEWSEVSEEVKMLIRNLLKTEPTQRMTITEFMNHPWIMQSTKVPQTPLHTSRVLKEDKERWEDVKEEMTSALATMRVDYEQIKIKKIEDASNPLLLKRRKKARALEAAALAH

PKN1 (PRK1) = molecular target: T18, PKN1 (PRK1) (Homo sapiens, UniProt Q16512); assay: Selectivity panel PKN1; format: biochemical; conditions: 5 µM inhibitor
T18 construct: purchased Life Technologies (Invitrogen SelectScreen); Dyrk1A, Dyrk2 and CK2α in-house or gifts

RIPK2 = molecular target: T19, RIPK2 (Homo sapiens, UniProt O43353); assay: Selectivity panel RIPK2; format: biochemical; conditions: 5 µM inhibitor
T19 construct: purchased Life Technologies (Invitrogen SelectScreen); Dyrk1A, Dyrk2 and CK2α in-house or gifts

MKNK1 (MNK1) = molecular target: T20, MKNK1 (MNK1) (Homo sapiens, UniProt Q9BUB5); assay: Selectivity panel MKNK1; format: biochemical; conditions: 5 µM inhibitor
T20 construct: purchased Life Technologies (Invitrogen SelectScreen); Dyrk1A, Dyrk2 and CK2α in-house or gifts
T20 sequence (Q9BUB5 whole entry): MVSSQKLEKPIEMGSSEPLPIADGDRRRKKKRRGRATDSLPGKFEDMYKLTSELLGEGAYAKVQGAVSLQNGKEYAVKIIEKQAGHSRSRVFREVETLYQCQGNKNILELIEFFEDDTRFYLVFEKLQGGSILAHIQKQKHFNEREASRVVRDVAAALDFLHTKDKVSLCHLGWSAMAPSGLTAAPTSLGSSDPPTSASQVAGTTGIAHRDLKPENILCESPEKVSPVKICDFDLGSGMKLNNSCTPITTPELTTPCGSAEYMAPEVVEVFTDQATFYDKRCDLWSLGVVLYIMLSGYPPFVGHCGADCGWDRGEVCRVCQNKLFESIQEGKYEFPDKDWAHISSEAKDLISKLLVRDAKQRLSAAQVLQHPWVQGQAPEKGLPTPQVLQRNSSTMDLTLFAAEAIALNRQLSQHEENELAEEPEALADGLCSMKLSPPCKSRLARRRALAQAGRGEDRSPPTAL

FYN = molecular target: T21, FYN (Homo sapiens, UniProt P06241); assay: Selectivity panel FYN; format: biochemical; conditions: 5 µM inhibitor
T21 construct: purchased Life Technologies (Invitrogen SelectScreen); Dyrk1A, Dyrk2 and CK2α in-house or gifts

PAK4 = molecular target: T22, PAK4 (Homo sapiens, UniProt O96013); assay: Selectivity panel PAK4; format: biochemical; conditions: 5 µM inhibitor
T22 construct: purchased Life Technologies (Invitrogen SelectScreen); Dyrk1A, Dyrk2 and CK2α in-house or gifts

FGFR3 = molecular target: T23, FGFR3 (Homo sapiens, UniProt P22607); assay: Selectivity panel FGFR3; format: biochemical; conditions: 5 µM inhibitor
T23 construct: purchased Life Technologies (Invitrogen SelectScreen); Dyrk1A, Dyrk2 and CK2α in-house or gifts

CDK1/cyclin B = molecular target: T24, CDK1/cyclin B (Homo sapiens, UniProt P06493); assay: Selectivity panel CDK1/cyclin B; format: biochemical; conditions: 5 µM inhibitor
T24 construct: purchased Life Technologies (Invitrogen SelectScreen); Dyrk1A, Dyrk2 and CK2α in-house or gifts
T24 sequence (P06493 whole entry): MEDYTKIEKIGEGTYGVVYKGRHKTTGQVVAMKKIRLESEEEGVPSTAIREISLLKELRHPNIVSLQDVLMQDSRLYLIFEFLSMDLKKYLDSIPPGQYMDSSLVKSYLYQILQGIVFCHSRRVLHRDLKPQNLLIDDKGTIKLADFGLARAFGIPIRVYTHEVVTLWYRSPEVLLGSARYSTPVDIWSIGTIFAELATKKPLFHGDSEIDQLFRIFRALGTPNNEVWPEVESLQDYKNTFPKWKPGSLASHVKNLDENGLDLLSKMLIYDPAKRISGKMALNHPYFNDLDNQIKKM
T24 sequence (P14635 whole entry partner): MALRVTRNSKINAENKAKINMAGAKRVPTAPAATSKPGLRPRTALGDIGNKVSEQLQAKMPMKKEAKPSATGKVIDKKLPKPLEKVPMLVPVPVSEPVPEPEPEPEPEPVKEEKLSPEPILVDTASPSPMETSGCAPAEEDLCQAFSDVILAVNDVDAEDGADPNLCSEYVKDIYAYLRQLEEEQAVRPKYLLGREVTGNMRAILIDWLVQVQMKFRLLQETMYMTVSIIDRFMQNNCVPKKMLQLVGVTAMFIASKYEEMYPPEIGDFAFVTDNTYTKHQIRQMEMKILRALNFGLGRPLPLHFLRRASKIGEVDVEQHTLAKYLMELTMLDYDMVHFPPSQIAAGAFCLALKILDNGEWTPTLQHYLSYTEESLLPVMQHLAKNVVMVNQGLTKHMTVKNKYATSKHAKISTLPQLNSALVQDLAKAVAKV

[1] = molecular target: T25, (Homo sapiens, UniProt Q9UEW8); assay: Selectivity panel PASK (STLK3); format: biochemical; conditions: 5 µM inhibitor; listed under STE
T25 construct: purchased Life Technologies (Invitrogen SelectScreen); Dyrk1A, Dyrk2 and CK2α in-house or gifts

MAPK9 (JNK2) = molecular target: T26, MAPK9 (JNK2) (Homo sapiens, UniProt P45984); assay: Selectivity panel MAPK9; format: biochemical; conditions: 5 µM inhibitor
T26 construct: purchased Life Technologies (Invitrogen SelectScreen); Dyrk1A, Dyrk2 and CK2α in-house or gifts
T26 sequence (P45984 whole entry): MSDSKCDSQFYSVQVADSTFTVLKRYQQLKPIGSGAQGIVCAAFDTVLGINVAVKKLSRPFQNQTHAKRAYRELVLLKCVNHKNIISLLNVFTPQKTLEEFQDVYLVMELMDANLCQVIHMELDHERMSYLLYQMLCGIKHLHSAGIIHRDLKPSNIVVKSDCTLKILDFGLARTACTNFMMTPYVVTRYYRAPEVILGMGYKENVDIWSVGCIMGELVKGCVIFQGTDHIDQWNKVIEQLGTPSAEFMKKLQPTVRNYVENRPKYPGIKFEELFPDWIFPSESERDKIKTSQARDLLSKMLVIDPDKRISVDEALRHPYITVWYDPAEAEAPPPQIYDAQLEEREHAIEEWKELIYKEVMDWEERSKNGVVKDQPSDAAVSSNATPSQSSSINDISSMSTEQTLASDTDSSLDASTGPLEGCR

TAOK2 (TAO1) = molecular target: T27, TAOK2 (TAO1) (Homo sapiens, UniProt Q9UL54); assay: Selectivity panel TAOK2; format: biochemical; conditions: 5 µM inhibitor
T27 construct: purchased Life Technologies (Invitrogen SelectScreen); Dyrk1A, Dyrk2 and CK2α in-house or gifts

ZAK = molecular target: T28, ZAK (Homo sapiens, UniProt Q9NYL2); assay: Selectivity panel ZAK; format: biochemical; conditions: 5 µM inhibitor
T28 construct: purchased Life Technologies (Invitrogen SelectScreen); Dyrk1A, Dyrk2 and CK2α in-house or gifts

[2] = test system: V79 hamster lung fibroblast cells; assay: ViaLight Toxicity Assay; format: cell-based; conditions: V79 cells, 5 µM, 48 hours
Method: V79 hamster lung fibroblast cells were plated at a density of 45,000 cells per well in a white 96 well plate and allowed to adhere and grow for 24 hours. The compounds were then applied as dilutions in cell culture medium (DMEM with 10% FCS and penicillin/streptomycin mix) at a final concentration of 5, 10, and 20 µM, respectively. The plate was further incubated for 48 hours at 37°C in a humidified atmosphere containing 5% CO2. The ATP level was detected with a LONZA ViaLight™ Plus Kit according to protocol 1 of the vendor's instructions. Luminescence was measured in a POLARstar plate reader (BMG Labtech, Offenburg, Germany). The background luminescence was obtained from equally treated, cell-free wells containing serum, and subtracted from all values. Inhibition values obtained for different compound concentrations were compared using the two-sided Student's t-test; levels of significance thus obtained are indicated by asterisks.

U2OS osteosarcoma cells = assay: Caspase-3 Assay (Caspase-Glo 3/7); format: cell-based; conditions: for caspase-3/7 activity: starved U2OS cells, 48 hours, vs DMSO control
Method: U2OS osteosarcoma cells were seeded in a 96 well flat bottom plate (15*10^3 cells/well). […] The induction of caspase-3/7 activity was measured using the Promega Caspase-Glo 3/7 assay system (Promega, LOT 0000054568). The resulting luciferase reaction signals that are proportional to the caspase induction were measured in a POLARstar plate reader (BMG Labtech, Offenburg, Germany). […] Values obtained for different compound concentrations were compared using the two-sided Student's t test; levels of significance thus obtained are indicated by asterisks.

CHEK1 (CHK1) = molecular target: T29, CHEK1 (CHK1) (Homo sapiens, UniProt O14757); assay: Selectivity panel CHEK1; format: biochemical; conditions: 5 µM inhibitor
T29 construct: purchased Life Technologies (Invitrogen SelectScreen); Dyrk1A, Dyrk2 and CK2α in-house or gifts

PRKCE (PKC epsilon) = molecular target: T30, PRKCE (PKC epsilon) (Homo sapiens, UniProt Q02156); assay: Selectivity panel PRKCE; format: biochemical; conditions: 5 µM inhibitor
T30 construct: purchased Life Technologies (Invitrogen SelectScreen); Dyrk1A, Dyrk2 and CK2α in-house or gifts
T30 sequence (Q02156 whole entry): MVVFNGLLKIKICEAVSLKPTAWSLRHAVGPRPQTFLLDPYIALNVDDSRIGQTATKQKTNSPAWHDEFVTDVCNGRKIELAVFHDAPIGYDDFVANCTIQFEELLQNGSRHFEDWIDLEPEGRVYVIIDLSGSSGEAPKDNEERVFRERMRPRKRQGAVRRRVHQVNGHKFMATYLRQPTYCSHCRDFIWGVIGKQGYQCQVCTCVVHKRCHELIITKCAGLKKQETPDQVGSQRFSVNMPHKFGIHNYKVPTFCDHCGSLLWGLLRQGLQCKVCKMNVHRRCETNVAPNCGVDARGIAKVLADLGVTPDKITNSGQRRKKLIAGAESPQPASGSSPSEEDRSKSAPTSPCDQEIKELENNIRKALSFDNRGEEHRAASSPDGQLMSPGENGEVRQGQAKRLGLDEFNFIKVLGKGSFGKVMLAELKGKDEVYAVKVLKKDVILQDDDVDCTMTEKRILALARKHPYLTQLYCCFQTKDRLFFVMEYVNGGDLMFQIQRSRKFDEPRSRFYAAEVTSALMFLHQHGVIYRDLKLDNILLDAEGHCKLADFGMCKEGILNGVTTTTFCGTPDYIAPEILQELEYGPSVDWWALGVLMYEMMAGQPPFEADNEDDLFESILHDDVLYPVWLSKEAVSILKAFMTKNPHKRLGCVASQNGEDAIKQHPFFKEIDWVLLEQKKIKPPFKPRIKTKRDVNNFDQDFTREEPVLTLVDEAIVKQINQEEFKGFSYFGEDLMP

IGF1R = molecular target: T31, IGF1R (Homo sapiens, UniProt P08069); assay: Selectivity panel IGF1R; format: biochemical; conditions: 5 µM inhibitor
T31 construct: purchased Life Technologies (Invitrogen SelectScreen); Dyrk1A, Dyrk2 and CK2α in-house or gifts
T31 sequence (P08069 31-1367): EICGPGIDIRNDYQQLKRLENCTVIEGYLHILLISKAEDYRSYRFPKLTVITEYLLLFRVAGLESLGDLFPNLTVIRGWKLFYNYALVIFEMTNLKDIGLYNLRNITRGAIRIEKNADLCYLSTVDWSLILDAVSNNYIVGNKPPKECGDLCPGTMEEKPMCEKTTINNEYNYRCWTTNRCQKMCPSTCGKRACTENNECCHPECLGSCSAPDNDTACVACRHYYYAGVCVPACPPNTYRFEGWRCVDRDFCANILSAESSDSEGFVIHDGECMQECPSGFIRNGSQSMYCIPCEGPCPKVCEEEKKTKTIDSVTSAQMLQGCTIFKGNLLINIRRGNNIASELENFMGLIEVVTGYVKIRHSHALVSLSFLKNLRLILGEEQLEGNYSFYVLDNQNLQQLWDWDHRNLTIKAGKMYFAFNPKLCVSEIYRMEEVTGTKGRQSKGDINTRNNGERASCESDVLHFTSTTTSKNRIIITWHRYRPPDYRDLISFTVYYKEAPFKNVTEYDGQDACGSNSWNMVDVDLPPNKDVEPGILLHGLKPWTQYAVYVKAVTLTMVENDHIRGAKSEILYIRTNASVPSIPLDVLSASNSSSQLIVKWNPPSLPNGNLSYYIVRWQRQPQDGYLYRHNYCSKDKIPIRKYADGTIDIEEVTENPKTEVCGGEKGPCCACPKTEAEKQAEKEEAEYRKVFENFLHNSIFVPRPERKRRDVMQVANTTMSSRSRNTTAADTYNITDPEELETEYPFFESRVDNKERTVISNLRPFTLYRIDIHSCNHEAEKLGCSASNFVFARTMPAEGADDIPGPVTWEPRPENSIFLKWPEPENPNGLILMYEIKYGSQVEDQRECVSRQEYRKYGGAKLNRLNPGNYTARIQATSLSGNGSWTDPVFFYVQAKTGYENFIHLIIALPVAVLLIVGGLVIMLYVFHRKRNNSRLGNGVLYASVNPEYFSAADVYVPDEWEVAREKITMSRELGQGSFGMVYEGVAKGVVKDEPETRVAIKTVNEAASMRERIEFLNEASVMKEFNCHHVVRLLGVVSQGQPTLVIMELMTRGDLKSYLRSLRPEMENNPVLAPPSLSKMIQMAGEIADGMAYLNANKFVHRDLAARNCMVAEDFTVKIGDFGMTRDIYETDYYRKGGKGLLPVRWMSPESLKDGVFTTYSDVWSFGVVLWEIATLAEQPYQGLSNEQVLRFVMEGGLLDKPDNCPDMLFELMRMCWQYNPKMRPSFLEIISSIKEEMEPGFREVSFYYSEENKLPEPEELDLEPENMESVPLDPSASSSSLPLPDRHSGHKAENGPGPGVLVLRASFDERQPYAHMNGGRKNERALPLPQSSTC

IRAK4 = molecular target: T32, IRAK4 (Homo sapiens, UniProt Q9NWZ3); assay: Selectivity panel IRAK4; format: biochemical; conditions: 5 µM inhibitor
T32 construct: purchased Life Technologies (Invitrogen SelectScreen); Dyrk1A, Dyrk2 and CK2α in-house or gifts

Compound	inhibition at 5 µM (TEK (Tie2)) [%]	inhibition at 5 µM (PASK) [%]	inhibition at 5 µM (DYRK3) [%]	inhibition at 5 µM (BTK) [%]	inhibition at 5 µM (DAPK3 (ZIPK)) [%]	inhibition at 5 µM (MAP2K1 (MEK1)) [%]	inhibition at 5 µM (MYLK2 (skMLCK)) [%]	inhibition at 5 µM (RPS6KA5 (MSK1)) [%]	inhibition at 5 µM (NEK1) [%]	inhibition at 5 µM (ROCK2) [%]	inhibition at 5 µM (MAPK1 (ERK2)) [%]	inhibition at 5 µM (PDK1) [%]	inhibition at 5 µM (ZAP70) [%]	inhibition at 5 µM (PIK3CA/PIK3R1) [%]	inhibition at 5 µM (ABL1) [%]	inhibition at 5 µM (AXL) [%]	inhibition at 5 µM (MAPKAPK2) [%]	inhibition at 5 µM (PKN1 (PRK1)) [%]	inhibition at 5 µM (RIPK2) [%]	inhibition at 5 µM (MKNK1 (MNK1)) [%]	other results
c1cncc(-c2csc(-c3cncs3)c2)c1 [Compound 48, 3-[5-(1,3-thiazol-5-yl)thiophen-3-yl]pyridine]	0	27	69	15	-5	2	31	10	-5	9	1	7	-1	12	6	-11	2	-10	46	47	inhibition at 5 µM (FYN): 0%; inhibition at 5 µM (PAK4): 4%; inhibition at 5 µM (FGFR3): -1%; inhibition at 5 µM (CDK1/cyclin B): 42%; inhibition at 5 µM [1]: 27%; inhibition at 5 µM (MAPK9 (JNK2)): -6%; inhibition at 5 µM (TAOK2 (TAO1)): -6%; inhibition at 5 µM (ZAK): 11%; influence on cell viability (cellular ATP levels) [2]: no influence on cell viability; caspase-3/7 activity (U2OS osteosarcoma cells): clear increase; inhibition at 5 µM (CHEK1 (CHK1)): 7%; inhibition at 5 µM (PRKCE (PKC epsilon)): -5%; inhibition at 5 µM (IGF1R): 3%; inhibition at 5 µM (IRAK4): -11%
c1cncc(-c2cc(-c3cncs3)cs2)c1 [Compound 29, 3-[4-(1,3-thiazol-5-yl)thiophen-2-yl]pyridine]	-1	23	66	17	-1	1	12	15	3	6	-6	-10	4	21	2	-2	2	-16	53	83	inhibition at 5 µM (FYN): -2%; inhibition at 5 µM (PAK4): 3%; inhibition at 5 µM (FGFR3): -2%; inhibition at 5 µM (CDK1/cyclin B): 29%; inhibition at 5 µM [1]: 23%; inhibition at 5 µM (MAPK9 (JNK2)): -6%; inhibition at 5 µM (TAOK2 (TAO1)): -6%; inhibition at 5 µM (ZAK): 11%; influence on cell viability (cellular ATP levels) [2]: no influence on cell viability; concentration at which induction of caspase-3/7 was already observed (U2OS osteosarcoma cells; U2OS cells, not statistically significant at this concentration): 0.5 µM; caspase-3/7 activity (U2OS osteosarcoma cells): clear increase; inhibition at 5 µM (CHEK1 (CHK1)): 3%; inhibition at 5 µM (PRKCE (PKC epsilon)): -18%; inhibition at 5 µM (IGF1R): 1%; inhibition at 5 µM (IRAK4): -7%
